Test results: paper PMC11002875, “Linking triphenylphosphonium cation to a bicyclic hydroquinone improves their antiplatelet effect via the regulation of mitochondrial function” (Redox Biology, 2024)
Like-named read-outs stand apart in the source and are kept apart here.

Assays:
[1] = system: Washed platelets; assay: Platelet activation markers in washed platelets (flow cytometry); assay type: cell-based, Human; details: collagen 2 μg/mL; compounds 1, 5 and 10 μM; vs activated control
Protocol: (§1) Human platelet purification. The blood sample was obtained from voluntary donors (10 days without antiplatelet medication) who agreed to participate after signing informed consent (Scientific Ethics Committee of the University of Talca N° 04–2022). Briefly, blood anticoagulated with acid-citrate-dextrose (ACD) was obtained in a 4:1 v/v ratio. The sample was centrifuged for 12 min at 250 g to obtain platelet-rich plasma (PRP). Subsequently, the PRP was centrifuged for 8 min at 900 g to obtain the platelet pellet. The plasma supernatant was removed, and the platelets were resuspended in Tyrodes buffer without calcium plus ACD in a ratio of 5:1 v/v. The platelets were centrifuged once more for 8 min at 900 g and the pellet was resuspended in Tyrodes buffer without calcium. Finally, the platelets were counted (Mindray BC-3000 Plus hematology counter, Japan), adjusted to the desired concentration, and used within 3 h.
Platelet activation markers. Washed platelets (200-250 × 10^6 platelets/mL) were incubated with the compounds (1, 5 and 10 μM), then activated with collagen 2 μg/mL and incubated for 5 min at 37 °C. Aliquots of the reaction were then collected and labeled separately with human antibodies (BD Biosciences, San José, CA, USA) for P-selectin, CD63, activated GPIIb/IIIa (PAC-1), and fibrinogen to assess the levels of each marker on the platelet membrane. The sample was acquired using the BD Facs Lyric flow cytometer (BD Biosciences, USA). Representative dot plots are available in Supplementary Figures 8-11 and 20-23. In the case of the activation markers P-selectin and bound fibrinogen in PRP, the same procedure for washed platelets was performed with representative dot plots available in Supplementary Figs. 15 and 16. The platelet population was identified with anti-CD61-PE or anti-CD61-FITC (BD Biosciences, San José, CA, USA).

[2] = system: platelets; assay: Oxygen consumption and extracellular acidification rate (Seahorse XFe24); assay type: cell-based, Human; details: 10 µM
Protocol: as §1
Oxygen consumption and extracellular acidification rate. Oxygen consumption rate (OCR) and extracellular acidification rate (ECAR) were measured with a Seahorse XFe24 extracellular flux analyzer (Agilent, Santa Clara, CA, USA). Briefly, 100 μL of platelets washed in modified Tyrode-HEPES buffer were deposited (20–25 × 10^6 cells/well) and then centrifuged at 300 g for 10 min. Platelets were incubated with NP4 10 μM for 5 min, and then Tyrode's-HEPES buffer was removed and Seahorse medium (8.3 g/L DMEM, 1.85 g/L NaCl, 5 mM glucose, 1 mM pyruvate, 2 mM glutamine, 5 mM HEPES, pH 7.4) was added to a final volume of 600 μL [70]. OCR was measured before and after the sequential addition of 3 μg/mL collagen, 2.5 μM oligomycin, 1.4 μM FCCP, and 2 μM/2 μM antimycin A/rotenone. Non-mitochondrial OCR was subtracted from all measurements. Respiratory parameters obtained with Mito Stress Test (Supplementary Table 1) were calculated as follows: Baseline (baseline OCR), collagen (OCR after collagen addition), activation (collagen-basal), ATP-independent or proton leak (OCR resistant to oligomycin addition), ATP-linked respiration (basal-proton leak), maximum (OCR obtained after addition of FCCP), and spare (maximal-basal), coupling efficiency (OCR Basal – OCR ATP-indep)/OCR Basal). Respiratory parameters were calculated according to Refs. [66, 70, 73].

[3] = system: Washed platelets; assay: Intraplatelet calcium levels (Fluo-4-AM); assay type: cell-based, Human; details: compounds 1, 5 and 10 μM, 10 min
Protocol: as §1
Intraplatelet calcium levels. Washed platelets (200-250 × 10^6 platelets/mL) were labeled Fluo-4-AM probe with 0.5 μM and incubated for 20 min at room temperature protected from light. Subsequently, platelets were adjusted to a count of 50 × 10^6 platelets/mL, and compounds (1, 5, and 10 μM) were added and incubated for 10 min at 37 °C. The sample was acquired in the BD Facs Lyric flow cytometer (BD Biosciences, USA). Representative dot plots are available in Supplementary Figs. 13 and 26. As a control for increased intracellular calcium, P-trifluoromethoxyphenylhydrazone carbonylcyanide (FCCP) 1 μM was used.

[4] = system: Washed platelets; assay: Mitochondrial membrane potential (TMRM); assay type: cell-based, Human; details: compounds 1, 5 and 10 μM, 20 min
Protocol: as §1
Mitochondrial membrane potential (ΔΨm). Washed platelets (50 × 10^6 platelets/mL) were labeled with a 100 nM tetramethylrhodamine methyl ester (TMRM) probe and incubated with compounds (1, 5 and 10 μM) for 20 min at 37 °C. The sample was acquired in the BD Facs Lyric flow cytometer (BD Biosciences, USA). Representative dot plots are available in Supplementary Figs. 12, 24, and 25. Carbonyl cyanide 4-(trifluoromethoxy) phenylhydrazone (FCCP) 1 μM was used as a control for decreasing the mitochondrial membrane potential.

[5] = system: Washed platelets; assay: Platelet aggregation in washed platelets (aggregometer); assay type: cell-based, Human; details: washed platelets
Protocol: as §1
Platelet aggregation. Washed platelets (200-250 × 10^6 platelets/mL) were preincubated with 2 mM CaCl2 and then with the compounds under study for 5 min at 37 °C in the aggregometer (Agg RAM- Helena Biosciences). Aggregation was initiated with the agonists: collagen 2 μg/mL; convulxin 20 ng/mL; TRAP-6 (Thrombin receptor activator peptide 6) 5 μM; PMA (Phorbol myristate acetate) 100 nM or arachidonic acid 250 μg/mL. The aggregation curve was evaluated for 5 min at 37 °C in shaking at 1000 rpm.

[6] = system: Washed platelets; assay: Intraplatelet (cytosolic) ROS levels (DHE); assay type: cell-based, Human; details: compounds 1, 5 and 10 μM, 10 min
Protocol: as §1
Intraplatelet ROS levels. Washed platelets (50 × 10^6 platelets/mL) were labeled with the dihydroethidium (DHE) probe 10 μM and incubated for 20 min at 37 °C protected from light. After, compounds (1, 5, and 10 μM) were added to the platelets and incubated for 10 min at 37 °C. The sample was acquired in the BD Facs Lyric flow cytometer (BD Biosciences, USA). Representative dot plots are available in Supplementary Figs. 18 and 27. As a positive control for ROS, antimycin A 20 μM was used.

[7] = system: Washed platelets; assay: Cellular cytotoxicity by release of lactate dehydrogenase (LDH); assay type: cell-based, Human; details: screening at 10–100 μM
Protocol: as §1
Cellular cytotoxicity by the release of lactate dehydrogenase (LDH). Washed platelets (200-250 × 10^6 platelets/mL) were incubated with the compounds under study or vehicle for 15 min at 37 °C. Then, the platelets were centrifuged at 900 g for 8 min to collect the supernatant. […] The absorbance was analyzed at 490 nm (Microplate Reader Thermo Scientific Multiskan Go, Finland).

[8] = Homo sapiens, Platelet, PMA 100 nM, read-out: IC50 for platelet aggregation, PMA
[9] = Homo sapiens, Platelet, TRAP-6 5 μM, read-out: IC50 for platelet aggregation, TRAP-6
[10] = Homo sapiens, Platelet, arachidonic acid 250 μg/mL, read-out: IC50 for platelet aggregation, Arachidonic Acid
[11] = Homo sapiens, Platelet, collagen 2 μg/mL, read-out: IC50 for platelet aggregation, Collagen

Structure (SMILES) | Bound fibrinogen platelet activation marker [1] | CD63 platelet activation marker [1] | PAC-1 (activated GPIIb/IIIa) platelet activation marker [1] | Intraplatelet calcium levels [3] | Mitochondrial membrane potential (ΔΨm) [4] | Cytosolic total ROS levels [6] | IC50 [5, 8] [µM] | IC50 [5, 9] [µM] | IC50 [5, 10] [µM] | IC50 [5, 11] [µM] | other results
CCCC[P+](c1ccccc1)(c1ccccc1)c1ccccc1 [TPPBut, butyltriphenylphosphonium cation, reference compound] | did not show any effect | did not show any effect | did not show any effect | did not show any effect | did not show any effect | did not show any effect | – | – | – | – | P-selectin platelet activation marker [1]: did not show any effect; ATP-dep (OCRBasal – OCRATP-indep) [2]: 5,68 ± 0,10; Activation (OCRCollagen – OCRBasal) [2]: 0,59 ± 0,20; Coupling efficiency ((OCRBasal – OCRATP-indep)/OCRBasal) [2]: 0,92 ± 0,01; Spare (OCRMaximum – OCRBasal) [2]: 0,73 ± 0,27; Basal (OCR/10^6 platelets) ([2]; Seahorse Mito Stress Test): 6,21 ± 0,08 OCR/10^6 platelets; Maximum (OCR/10^6 platelets) ([2]; after 1.4 μM FCCP): 6,94 ± 0,19 OCR/10^6 platelets; Collagen (OCR/10^6 platelets) ([2]; after 3 μg/mL collagen): 6,80 ± 0,16 OCR/10^6 platelets; Non-mito (OCR/10^6 platelets) ([2]; after antimycin A/rotenone): 0,01 ± 0,02 OCR/10^6 platelets; ATP-indep (OCR/10^6 platelets) ([2]; proton leak, after 2.5 μM oligomycin): 0,52 ± 0,05 OCR/10^6 platelets; IC50 ([5]; PMA 100 nM, read-out: IC50 for platelet aggregation, PMA): > 20 µM; IC50 ([5]; TRAP-6 5 μM, read-out: IC50 for platelet aggregation, TRAP-6): > 20 µM; IC50 ([5]; arachidonic acid 250 μg/mL, read-out: IC50 for platelet aggregation, Arachidonic Acid): > 20 µM; IC50 ([5]; collagen 2 μg/mL, read-out: IC50 for platelet aggregation, Collagen): 13.7 ± 2.27 µM; IC50 ([5]; convulxin 20 ng/mL, read-out: IC50 for platelet aggregation, Convulxin): > 20 µM
Cc1c(C)c(O)c2c(c1O)C(=O)C(CCCCBr)=CC2(C)C [NB4, 2-(4-bromobutyl)-5,8-dihydroxy-4,4,6,7-tetramethylnaphthalen-1(4H)-one] | – | – | – | – | – | – | > 20 | > 20 | > 20 | 15.3 ± 2.61 | –
CCCCC1=CC(C)(C)c2c(O)c(C)c(C)c(O)c2C1=O [NH4, 2-Butyl-5,8-dihydroxy-4,4,6,7-tetramethylnaphthalen-1(4H)-one] | did not have significant effects | did not have significant effects | did not have significant effects | increase it significantly | significantly decrease | neither NP4 nor NH4 significantly affected | > 20 | > 20 | > 20 | 4.76 ± 0.7 | –
COc1c(C)c(C)c(O)c2c1C(C)(C)C=C(CCCC[P+](c1ccccc1)(c1ccccc1)c1ccccc1)C2=O.[Br-] [NPO4, (4-(8-hydroxy-5-methoxy-4,4,6,7-tetramethyl-1-oxo-1,4-dihydronaphthalen-2-yl)butyl)triphenyl phosphonium bromide] | – | – | – | – | – | – | – | – | – | – | melting point: 91.5 to 93 °C; Cytotoxicity by LDH release (screening) [7]: *NPO4 was excluded because showed high cytotoxicity
CCCCC1=CC(C)(C)c2c(OC)c(C)c(C)c(O)c2C1=O [NHO4, 2-Butyl-8-hydroxy-5-methoxy-4,4,6,7-tetramethylnaphthalen-1(4H)-one] | – | – | – | – | – | – | > 20 | > 20 | > 20 | 18.4 ± 5.26 | –
COc1c(C)c(C)c(O)c2c1C(C)(C)C=C(CCCCBr)C2=O [NBO4, 2-(4-bromobutyl)-8-hydroxy-5-methoxy-4,4,6,7-tetramethylnaphthalen-1(4H)-one] | – | – | – | – | – | – | > 20 | > 20 | > 20 | 4.87 ± 1.15 | –
